Earlier results, collected in patent US7947677B2, “Spirolactam tricyclic CGRP receptor antagonists” (Merck Sharp & Dohme Corp., priority 2005, dated 2011).
No end group written: not given here.

What was measured:
[1] = system: facial blood flow; conditions: rat, trigeminal ganglion stimulation (Escott et al. 1995)
[2] = system: middle meningeal artery; conditions: rats, electrical stimulation of the dura mater, prior administration (Williamson et al. 1997)
[3] = system: facial blood flow; conditions: marmoset, electrical stimulation of the trigeminal ganglion (Doods et al. 2000)

Molecule | increased facial blood flow [1] | increase of the diameter of the middle meningeal artery [2] | increase in facial blood flow [3]
CGRP(8-37): a fragment of CGRP that lacks seven N-terminal amino acid residues; a peptide CGRP antagonist (VTHRLAGLLSRSGGVVKNNFVPTNVGSKAF; ends and bridges not checked; UniProt P06881 90-119, looked up, fragment) | inhibited | blocked | 
NCCCC[C@H](NC(=O)[C@@H](Cc1cc(Br)c(O)c(Br)c1)NC(=O)N1CCC(N2Cc3ccccc3NC2=O)CC1)C(=O)N1CCN(c2ccncc2)CC1 [BIBN4096BS] |  |  | blocked
